This passage reports IC50 results from patent US12503439B2, “Heteroaryl compounds for the treatment of pain” (VERTEX PHARMACEUTICALS INCORPORATED, priority 2022, dated 2025).

As a reminder, the pIC50 is the IC50 on a negative log10 scale, so that one unit is a factor of ten.

Molecules are shown by their SMILES. pIC50: −log10 of the molar value.

The assay deals with truncated form of human NaV 1.8 with full channel activity (expressed in HEK cells) (Homo sapiens, UniProt Q9Y5Y9). Description: E-VIPR assay detecting and measuring NaV inhibition properties (electrical stimulation, membrane potential FRET dyes). Format: cell-based. The note with it: HEK cells expressing truncated human NaV 1.8, KIR2.1 BacMam; 11-point dose response; 30 min compound incubation; stimulation 10 Hz for 10 s; read-out: measured IC50 value in the E-VIPR Assay. The source says: E-VIPR Assay Detecting and Measuring NaV Inhibition Properties
Sequence of truncated form of human NaV 1.8 with full channel activity (expressed in HEK cells) (Q9Y5Y9 126-1722 limits assumed): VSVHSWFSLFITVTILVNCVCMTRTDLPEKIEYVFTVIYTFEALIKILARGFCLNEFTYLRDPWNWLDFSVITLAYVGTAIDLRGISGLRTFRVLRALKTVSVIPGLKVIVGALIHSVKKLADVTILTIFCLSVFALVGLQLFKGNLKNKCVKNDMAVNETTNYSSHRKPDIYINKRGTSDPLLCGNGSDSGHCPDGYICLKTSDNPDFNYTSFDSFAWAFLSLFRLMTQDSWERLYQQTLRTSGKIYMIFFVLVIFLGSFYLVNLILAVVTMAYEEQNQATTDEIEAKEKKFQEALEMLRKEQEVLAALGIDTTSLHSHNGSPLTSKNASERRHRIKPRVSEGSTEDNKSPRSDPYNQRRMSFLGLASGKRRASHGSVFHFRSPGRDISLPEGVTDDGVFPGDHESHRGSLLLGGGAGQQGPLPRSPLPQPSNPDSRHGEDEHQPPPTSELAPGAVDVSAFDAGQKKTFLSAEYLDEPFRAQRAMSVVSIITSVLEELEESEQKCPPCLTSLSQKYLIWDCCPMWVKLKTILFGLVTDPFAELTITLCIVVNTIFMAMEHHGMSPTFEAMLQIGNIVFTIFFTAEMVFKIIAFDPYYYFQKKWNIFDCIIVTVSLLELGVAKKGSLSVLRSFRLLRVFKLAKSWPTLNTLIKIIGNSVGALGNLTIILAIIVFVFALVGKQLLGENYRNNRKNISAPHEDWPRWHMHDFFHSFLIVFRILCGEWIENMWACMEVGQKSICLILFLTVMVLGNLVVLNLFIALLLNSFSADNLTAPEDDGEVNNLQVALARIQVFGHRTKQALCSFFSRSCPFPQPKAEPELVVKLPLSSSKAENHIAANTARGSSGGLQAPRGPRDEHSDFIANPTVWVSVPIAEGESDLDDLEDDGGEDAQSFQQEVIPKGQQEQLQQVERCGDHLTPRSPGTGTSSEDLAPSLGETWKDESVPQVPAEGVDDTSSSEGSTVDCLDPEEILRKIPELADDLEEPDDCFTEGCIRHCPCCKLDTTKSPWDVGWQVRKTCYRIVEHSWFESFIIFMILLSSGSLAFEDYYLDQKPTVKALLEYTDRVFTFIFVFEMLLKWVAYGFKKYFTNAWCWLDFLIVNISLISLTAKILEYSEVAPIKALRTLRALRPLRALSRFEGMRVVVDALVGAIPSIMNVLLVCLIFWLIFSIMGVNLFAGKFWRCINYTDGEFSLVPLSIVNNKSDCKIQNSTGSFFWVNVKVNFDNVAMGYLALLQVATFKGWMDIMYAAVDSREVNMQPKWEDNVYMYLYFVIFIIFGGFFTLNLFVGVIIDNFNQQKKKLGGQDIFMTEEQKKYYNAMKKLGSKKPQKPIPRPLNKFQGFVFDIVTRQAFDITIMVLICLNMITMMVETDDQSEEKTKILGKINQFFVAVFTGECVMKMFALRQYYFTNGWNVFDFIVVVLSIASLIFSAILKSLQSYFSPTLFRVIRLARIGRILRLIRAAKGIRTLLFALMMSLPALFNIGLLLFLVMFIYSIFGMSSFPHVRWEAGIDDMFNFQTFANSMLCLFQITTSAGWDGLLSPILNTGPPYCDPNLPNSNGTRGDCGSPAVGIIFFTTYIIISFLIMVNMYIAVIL
Sodium ion channels are voltage-dependent proteins that can be activated by inducing membrane voltage changes by applying electric fields. […] The instrument comprises a microtiter plate handler, an optical system for exciting the coumarin dye while simultaneously recording the coumarin and oxonol emissions, a waveform generator, a current- or voltage-controlled amplifier, and parallel electrode pairs that are inserted into assay plate wells. Under integrated computer control, this instrument passes user-programmed electrical stimulus protocols to cells within the wells of the microtiter plate.
16-20 hours prior to running the assay on E-VIPR, HEK cells expressing a truncated form of human NaV 1.8 with full channel activity were seeded into microtiter 384-well plates, pre-coated with matrigel, at a density of 25,000 cells per well. 2.5-5% KIR2.1 BacMam virus was added to the final cell suspension before seeding into cell plates. […] Cells were expanded in 5-layer CellSTACK culture chambers or cell culture flasks with vented caps, with 90-95% humidity and 5% CO2.
Reagents and Stock Solutions:
The concentration used can be dependent on viral titer of each batch.
Human Serum (HS, Millipore #S1P1-01KL, or Sigma SLBR5469V and SLBR5470V as a 50%/50% mixture, for 25% assay final concentration)
Hexyl Dye Solution (2× Concentration):
Bath 1 Buffer containing 0.5% β-cyclodextrin (made fresh prior to each use, Sigma #C4767), 8 μM CC2-DMPE and 2 μM DiSBAC6(3). The solution was made by adding 10% Pluronic F127 stock equal to combined volumes of CC2-DMPE and DiSBAC6(3). The order of preparation was first mix Pluronic and CC2-DMPE, then add DiSBAC6(3), then while vortexing add Bath 1/β-Cyclodextrin.
Assay Protocol (7 Key Steps):
The compound plate was backfilled with 45 μL per well of Compound Loading Buffer resulting in a 240-fold dilution of compound following a 1:1 transfer of compound into the cell plate (see Step 6). […] This assay dilution protocol was adjusted to enable a higher dose range to be tested in the presence of HS or if the final assay volume was altered. • 2) Hexyl Dye Solution was prepared. • 3) Cell plates were prepared. On the day of the assay, the media was aspirated, and the cells were washed three times with 80 μL of Bath-1 buffer, maintaining 25 μL residual volume in each well. • 4) 25 μL per well of Hexyl Dye Solution was dispensed into the cell plates. The cells were incubated for 20 minutes at room temperature or ambient conditions in darkness. • 5) 45 μL per well of Compound Loading Buffer was dispensed into compound plates. • 6) The cell plates were washed three times with 80 μL per well of Bath-1 Buffer, leaving […] of residual volume. Then 25 μL per well from compound plate was transferred to each cell plate. The mixture was incubated for 30 minutes at room temperature/ambient conditions. • 7) The cell plate containing compound was read on E-VIPR using the current-controlled amplifier to deliver stimulation wave pulses using a symmetrical biphasic waveform. […] A pre-stimulus recording was performed for each well for 0.5 seconds to obtain the un-stimulated intensities baseline. The stimulatory waveform was followed by 0.5 seconds of post-stimulation recording to examine the relaxation to the resting state. All E-VIPR responses were measured at 200 Hz acquisition rate. Data Analysis:
The response as a function of time was reported as the ratios obtained using the following formula: […]
The data were normalized by calculating the initial (Ri) and final (Rf) ratios. These were the average ratio values during part or all of the pre-stimulation period and during sample points during the stimulation period. The fluorescence ratio (Rf/Ri) was then calculated and reported as a function of time.
Control responses were obtained by performing assays in the presence of the positive control, and in the absence of pharmacological agents (DMSO vehicle negative control).
As for `COc1cc(F)ccc1Oc1cc(C(C)(C)C)cc(C)c1-c1nc2cccc(F)c2c(=O)[nH]1` [Compound 38, 2-[4-tert-butyl-2-(4-fluoro-2-methoxy-phenoxy)-6-methyl-phenyl]-5-fluoro-3H-quinazolin-4-one], the negative logarithm of the IC50 (pIC50) was 5.70 to 6.30.

Take `COC1CCC(c2cc(C(C)(C)C)ncc2-c2cc(=O)c3c(C(N)=O)nccc3[nH]2)CC1` (stereo not shown) [Compound 133, 2-[6-tert-butyl-4-(4-methoxycyclohexyl)-3-pyridyl]-4-oxo-1H-1,6-naphthyridine-5-carboxamide]: the pIC50 was 5.70 to 6.30.

In the case of `COc1cc(F)ccc1Oc1cc(C(C)(C)C)cc(C)c1-c1[nH]c2ccccc2c(=O)c1Br` (single isomer, unassigned) [Compound 320, 3-bromo-2-[4-tert-butyl-2-(4-fluoro-2-methoxy-phenoxy)-6-methyl-phenyl]-1H-quinolin-4-one], the pIC50 is 5.70 to 6.30.

As for `O=c1cc(-c2ccccc2OCc2ccccc2)[nH]c2ccccc12` [Compound 3, 2-(2-benzyloxyphenyl)-1H-quinolin-4-one], the pIC50 was 5.70 to 6.30.

For `N#Cc1nccc2[nH]c(-c3cc4ccccc4nc3N3CCC(F)(F)C3)cc(=O)c12` [Compound 282, 2-[2-(3,3-difluoropyrrolidin-1-yl)-3-quinolyl]-4-oxo-1H-1,6-naphthyridine-5-carbonitrile], the pIC50 was 5.70 to 6.30.

Consider `COc1cc(F)ccc1Oc1cc(C(C)(C)C)cc(C)c1-c1cc(=O)c2cccc(C)c2[nH]1` [Compound 32, 2-[4-tert-butyl-2-(4-fluoro-2-methoxy-phenoxy)-6-methyl-phenyl]-8-methyl-1H-quinolin-4-one], for which the pIC50 is 5.70 to 6.30.

Consider `Cc1c(C(F)(F)F)cnc(Oc2ccc(F)c(F)c2CO)c1-c1cc(=O)c2c(C(N)=O)nccc2[nH]1` [Compound 346, 2-[2-[3,4-difluoro-2-(hydroxymethyl)phenoxy]-4-methyl-5-(trifluoromethyl)-3-pyridyl]-4-oxo-1H-1,6-naphthyridine-5-carboxamide], for which the negative logarithm of the IC50 (pIC50) was 5.70 to 6.30.

Turning to `O=c1[nH]c(-c2nc(C(F)(F)F)ccc2N2CCCC(F)(F)CC2)nc2ccccc12` [Compound 153, 2-[3-(4,4-difluoroazepan-1-yl)-6-(trifluoromethyl)-2-pyridyl]-3H-quinazolin-4-one], the pIC50 is at most 5.30.

Turning to `C=C(C)c1c(-c2c(C)cc(C(C)(C)C)cc2Oc2ccc(F)cc2OC)[nH]c2ccccc2c1=O` (single isomer, unassigned) [Compound 331, 2-[4-tert-butyl-2-(4-fluoro-2-methoxy-phenoxy)-6-methyl-phenyl]-3-isopropenyl-1H-quinolin-4-one], the pIC50 is 5.70 to 6.30.

`O=c1cc(-c2ccccc2OCC2CC2)[nH]c2ccccc12` [Compound 2, 2-[2-(cyclopropylmethoxy)phenyl]-1H-quinolin-4-one]: the pIC50 was at most 5.30.

Regarding `CCN(c1nc2ccccc2cc1-c1cc(=O)c2c(C(N)=O)nccc2[nH]1)C1CCC1` [Compound 303, 2-[2-[cyclobutyl(ethyl)amino]-3-quinolyl]-4-oxo-1H-1,6-naphthyridine-5-carboxamide], the pIC50 was at most 5.30.

`O=c1cc(-c2ccccc2OCc2cccc(F)c2)[nH]c2ccccc12` [Compound 4, 2-[2-[(3-fluorophenyl)methoxy]phenyl]-1H-quinolin-4-one]: the pIC50 is 5.70 to 6.30.

As for `Cc1c(Oc2ncc(C(F)(F)F)c(C)c2-c2cc(=O)c3c(N4Cc5cn[nH]c5C4)nccc3[nH]2)ccc(F)c1F` [Compound 175, 2-[2-(3,4-difluoro-2-methyl-phenoxy)-4-methyl-5-(trifluoromethyl)-3-pyridyl]-5-(4,6-dihydro-1H-pyrrolo[3,4-c]pyrazol-5-yl)-1H-1,6-naphthyridin-4-one], the pIC50 is 5.70 to 6.30.

Take `O=c1cc(-c2ccccc2OCc2ccc(F)cc2)[nH]c2ccccc12` [Compound 6, 2-[2-[(4-fluorophenyl)methoxy]phenyl]-1H-quinolin-4-one]: the pIC50 was 5.30 to 5.70.

For `COc1cc(F)ccc1Oc1cc(C(C)(C)C)cc(C)c1-c1[nH]c2ccccc2c(=O)c1Cl` (single isomer, unassigned) [Compound 312, 2-[4-tert-butyl-2-(4-fluoro-2-methoxy-phenoxy)-6-methyl-phenyl]-3-chloro-1H-quinolin-4-one], the pIC50 was 5.70 to 6.30.

Take `O=c1cc(-c2cc(C(F)(F)F)ncc2[C@H]2CC[C@H](C(F)(F)F)CC2)[nH]c2ccncc12` [Compound 305, 2-[2-(trifluoromethyl)-5-[4-(trifluoromethyl)cyclohexyl]-4-pyridyl]-1H-1,6-naphthyridin-4-one]: the pIC50 was at most 5.30.

Regarding `O=c1cc(-c2ccccc2C2CC2)[nH]c2ccccc12` [Compound 1, 2-(2-cyclopropylphenyl)-1H-quinolin-4-one], the pIC50 was at most 5.30.

For the molecule `COc1cc(F)ccc1Oc1cc(C(C)(C)C)cc(C)c1-c1nc(=O)c2ccccc2[nH]1` [Compound 28, 2-[4-tert-butyl-2-(4-fluoro-2-methoxy-phenoxy)-6-methyl-phenyl]-1H-quinazolin-4-one], the pIC50 was 5.70 to 6.30.

Turning to `CC(C)(C)n1cc(-c2cc(=O)c3c(C(N)=O)nccc3[nH]2)c(C2CCC(F)(F)CC2)n1` [Compound 138, 2-[1-tert-butyl-3-(4,4-difluorocyclohexyl)pyrazol-4-yl]-4-oxo-1H-1,6-naphthyridine-5-carboxamide], the pIC50 was 5.70 to 6.30.

For `NC(=O)c1nccc2[nH]c(-c3cc4ccccc4nc3N3CCC(F)(F)C3)cc(=O)c12` [Compound 281, 2-[2-(3,3-difluoropyrrolidin-1-yl)-3-quinolyl]-4-oxo-1H-1,6-naphthyridine-5-carboxamide], the pIC50 was 5.70 to 6.30.

`Cc1cc(-c2cc(=O)c3c(C)nccc3[nH]2)c(N2CCCC(F)(F)CC2)nc1C(F)(F)F` [Compound 193, 2-[2-(4,4-difluoroazepan-1-yl)-5-methyl-6-(trifluoromethyl)-3-pyridyl]-5-methyl-1H-1,6-naphthyridin-4-one]: the pIC50 is at most 5.30.

Regarding `COc1cc(F)ccc1Oc1cc(C(C)(C)C)cc(C)c1-c1cc(=O)n2ccccc2n1` [Compound 37, 2-[4-tert-butyl-2-(4-fluoro-2-methoxy-phenoxy)-6-methyl-phenyl]pyrido[1,2-a]pyrimidin-4-one], the pIC50 is at most 5.30.

In the case of `O=c1cc(-c2cc(Cl)c(C(F)(F)F)nc2N2CCCC(F)(F)CC2)[nH]c2c(F)cccc12` [Compound 95, 2-[5-chloro-2-(4,4-difluoroazepan-1-yl)-6-(trifluoromethyl)-3-pyridyl]-8-fluoro-1H-quinolin-4-one], the pIC50 is 5.70 to 6.30.

As for `NC(=O)c1nccc2[nH]c(-c3cc(F)c(C(F)(F)F)cc3Oc3ccc(F)c(F)c3O)cc(=O)c12` [Compound 347, 2-[2-(3,4-difluoro-2-hydroxy-phenoxy)-5-fluoro-4-(trifluoromethyl)phenyl]-4-oxo-1H-1,6-naphthyridine-5-carboxamide], the pIC50 was 5.70 to 6.30.

Turning to `Cc1c(Oc2ncc(C(F)(F)F)c(C)c2-c2cc(=O)c3c(NC(C)(C)CO)nccc3[nH]2)ccc(F)c1F` [Compound 170, 2-[2-(3,4-difluoro-2-methyl-phenoxy)-4-methyl-5-(trifluoromethyl)-3-pyridyl]-5-[(2-hydroxy-1,1-dimethyl-ethyl)amino]-1H-1,6-naphthyridin-4-one], the pIC50 is 5.70 to 6.30.
